This note sets out measurements from PMC12106395, “HmuY proteins of the Porphyromonas genus show diversity in heme-binding properties” (Frontiers in Cellular and Infection Microbiology, 2025).

SMILES strings stand for the structures.

One experiment has as its target T1, HusA^Pg (Porphyromonas gingivalis, UniProt Q7MSY3).
T1 construct: gene PG_2227; 8xHis-MBP tag cut off with Factor Xa; E. coli host; strain of the plasmid only in supplement (W83 is the BLAST query strain)
Kind of experiment: UV-visible difference absorbance spectroscopy. The class given is binding. The note with it: 5 uM protein, 5 uM PPIX, PBS pH 7.4, room temperature; complex seen by spectroscopy only.

Another experiment deals with T2, HmuY^Bf-2 (Bacteroides fragilis, UniProt Q5LGH3).
T2 construct: gene BF9343_0985; 8xHis-MBP tag cut off with Factor Xa; E. coli host
T2 sequence (Q5LGH3 entry or part of it): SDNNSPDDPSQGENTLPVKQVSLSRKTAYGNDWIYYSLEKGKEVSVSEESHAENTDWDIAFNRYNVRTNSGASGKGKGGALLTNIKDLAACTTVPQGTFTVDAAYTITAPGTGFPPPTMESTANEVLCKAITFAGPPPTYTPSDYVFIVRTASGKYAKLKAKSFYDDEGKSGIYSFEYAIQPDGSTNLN
Kind of experiment: UV-visible difference absorbance spectroscopy; semi-denaturing PAGE with fluorescence detection. The class given is binding. The conditions noted are these: 5 uM protein, 5 uM PPIX, PBS pH 7.4, room temperature.

T1 sequence (Q7MSY3 entry or part of it): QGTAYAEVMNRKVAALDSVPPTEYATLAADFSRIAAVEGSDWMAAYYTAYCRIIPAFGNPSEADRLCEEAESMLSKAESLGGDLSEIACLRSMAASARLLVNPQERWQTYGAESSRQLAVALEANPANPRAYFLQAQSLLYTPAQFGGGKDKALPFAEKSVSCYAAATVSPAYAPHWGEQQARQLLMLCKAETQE

In the case of `C=CC1=C(C)c2cc3[nH]c(cc4nc(cc5[nH]c(cc1n2)c(C)c5CCC(=O)O)C(CCC(=O)O)=C4C)c(C)c3C=C` [PPIX], the “UV-visible difference absorbance spectroscopy” value at HusA^Pg was “HmuY^Bf-2, which, similar to HusA^Pg, binds both heme and PPIX”. For the same molecule, on HmuY^Bf-2, the “UV-visible difference absorbance spectroscopy; semi-denaturing PAGE with fluores” value was “PPIX binding by HmuY^Bf-2 were detected after electrophoretic separation of proteins and porphyrins”.
